# Assay results taken from patent US20130029962A1, “Substituted Heteroaromatic Pyrazole-Containing Carboxamide and Urea Compounds as Vanilloid Receptor Ligands” (Gruenenthal GmbH, priority 2011, published 2013).
# Target: T1, vanilloid receptor 1 (VR1/TRPV1 receptor) (Homo sapiens, UniProt Q8NER1)
# T1 construct: expressed in transfected cells; host or cells: CHO K1
# Assay: Functional testing on the vanilloid receptor 1 (VR1/TRPV1): FLIPR Ca2+ influx assay, displacement of capsaicin
# Type: cell-based, human being
# Parameters: key to mode of action at VR1/TRPV1 (AG, pAG, NE), Cap: AG=agonist; NE=no effect; pAG=partial agonist
# Conditions: 5 μM compound; capsaicin (Cap); human being; read-out: inhibition (as a percentage) at the concentration after @, Cap
# How it was run: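 Fluo-4 FLIPR Ca2+ influx in CHO K1 cells transfected with human VR1, measuring displacement of 100 nM capsaicin; rat VR1 agonism/antagonism also assessed in rat dorsal root ganglion neurons cultured 2–3 days at 37° C with 25 ng/mL NGF, then loaded with 2 μM Fluo-4.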
# T1 sequence (Q8NER1 whole entry): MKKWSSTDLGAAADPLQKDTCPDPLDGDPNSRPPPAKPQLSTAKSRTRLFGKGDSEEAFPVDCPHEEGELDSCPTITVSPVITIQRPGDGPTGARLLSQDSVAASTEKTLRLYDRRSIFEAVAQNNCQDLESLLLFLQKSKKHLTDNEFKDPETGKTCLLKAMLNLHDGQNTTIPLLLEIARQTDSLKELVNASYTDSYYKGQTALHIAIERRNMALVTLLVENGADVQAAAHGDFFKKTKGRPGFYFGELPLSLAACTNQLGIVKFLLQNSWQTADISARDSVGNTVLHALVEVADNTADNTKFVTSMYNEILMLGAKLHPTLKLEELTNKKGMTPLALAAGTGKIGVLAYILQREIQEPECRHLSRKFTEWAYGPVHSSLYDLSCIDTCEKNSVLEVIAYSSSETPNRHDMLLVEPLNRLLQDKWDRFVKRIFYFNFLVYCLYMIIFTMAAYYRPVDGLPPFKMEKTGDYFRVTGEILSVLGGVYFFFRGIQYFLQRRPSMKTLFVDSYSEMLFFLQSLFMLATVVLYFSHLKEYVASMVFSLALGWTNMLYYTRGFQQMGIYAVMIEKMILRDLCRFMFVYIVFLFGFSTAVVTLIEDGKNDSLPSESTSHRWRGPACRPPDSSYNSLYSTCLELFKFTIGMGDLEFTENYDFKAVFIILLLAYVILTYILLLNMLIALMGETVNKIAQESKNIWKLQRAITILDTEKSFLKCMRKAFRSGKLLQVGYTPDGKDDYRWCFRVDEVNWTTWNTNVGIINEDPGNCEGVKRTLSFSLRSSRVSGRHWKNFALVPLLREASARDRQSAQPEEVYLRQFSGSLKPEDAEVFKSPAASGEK
row,Compound,inhibition at 5 µM
1,"COCCN(C)c1ccc(C(C)C(=O)NCc2cc(C(F)(F)F)nn2-c2cccc(Cl)c2)cn1 (centres unmarked) [Example 88, N-((1-(3-chlorophenyl)-3-(trifluoromethyl)-1H-pyrazol-5-yl)methyl)-2-(6-((2-methoxyethyl)(methyl)amino)pyridin-3-yl)propanamide]",55%
2,"COCCN(C)c1ccc(NC(=O)NCc2cc(C(F)(F)F)nn2-c2cccc(Cl)c2)cn1 [Example 89, 1-((1-(3-chlorophenyl)-3-(trifluoromethyl)-1H-pyrazol-5-yl)methyl)-3-(6-((2-methoxyethyl)(methyl)amino)pyridin-3-yl)urea]",31%
3,"CC(C(=O)NCc1cc(C(C)(C)C)nn1-c1cccc(Cl)c1)c1ccc(NC(=O)c2ccccc2)nc1 (centres unmarked) [Example 91, N-(5-(1-((3-tert-butyl-1-(3-chlorophenyl)-1H-pyrazol-5-yl)methylamino)-1-oxopropan-2-yl)pyridin-2-yl)benzamide]",98%
4,"CS(=O)(=O)Nc1ccc(NC(=O)NCc2cc(C(F)(F)F)nn2-c2cccc(Cl)c2)cn1 [Example 101, N-(5-(3-((1-(3-chlorophenyl)-3-(trifluoromethyl)-1H-pyrazol-5-yl)methyl)ureido)pyridin-2-yl)methanesulfonamide]",30%

# Same assay, conditions: capsaicin (Cap) as stimulus; Ki from IC50 by Cheng-Prusoff; read-out: (f) Ki (human being) [nM] Cap
row,Compound,Ki
1,"O=C(NCc1cc(C(F)(F)F)nn1-c1cccc(Cl)c1)Nc1ccc(NCCO)nc1 [Example 71, 1-((1-(3-chlorophenyl)-3-(trifluoromethyl)-1H-pyrazol-5-yl)methyl)-3-(6-(2-hydroxyethylamino)pyridin-3-yl)urea]",8 nM
2,"O=C(NCc1cc(C2CC2)nn1-c1cccc(Cl)c1)Nc1ccc(NCCO)nc1 [Example 72, 1-((1-(3-chlorophenyl)-3-cyclopropyl-1H-pyrazol-5-yl)methyl)-3-(6-(2-hydroxyethylamino)pyridin-3-yl)urea]",17 nM
3,"O=C(NCc1cc(C(F)(F)F)nn1-c1ccc(F)c(F)c1)Nc1ccc(NCCO)nc1 [Example 79, 1-((1-(3,4-difluorophenyl)-3-(trifluoromethyl)-1H-pyrazol-5-yl)methyl)-3-(6-(2-hydroxyethylamino)pyridin-3-yl)urea]",26 nM
4,"Cc1cccc(-n2nc(C(F)(F)F)cc2CNC(=O)Nc2ccc(NCCO)nc2)c1 [Example 81, 1-(6-(2-hydroxyethylamino)pyridin-3-yl)-3-((1-m-tolyl-3-(trifluoromethyl)-1H-pyrazol-5-yl)methyl)urea]",12 nM
5,"CN(CCO)c1ccc(NC(=O)NCc2cc(C(C)(C)C)nn2-c2cccc(Cl)c2)cn1 [Example 87, 1-((3-tert-butyl-1-(3-chlorophenyl)-1H-pyrazol-5-yl)methyl)-3-(6-((2-hydroxyethyl)(methyl)amino)pyridin-3-yl)urea]",17 nM
6,"CN(CCO)c1ccc(NC(=O)NCc2cc(C(F)(F)F)nn2-c2cccc(Cl)c2)cn1 [Example 90, 1-((1-(3-chlorophenyl)-3-(trifluoromethyl)-1H-pyrazol-5-yl)methyl)-3-(6-((2-hydroxyethyl)(methyl)amino)pyridin-3-yl)urea]",44 nM
7,"CC(C(=O)NCc1cc(C(F)(F)F)nn1-c1cccc(Cl)c1)c1ccc(NC(=O)c2ccccc2)nc1 (centres unmarked) [Example 92, N-(5-(1-((1-(3-chlorophenyl)-3-(trifluoromethyl)-1H-pyrazol-5-yl)methylamino)-1-oxopropan-2-yl)pyridin-2-yl)benzamide]",26 nM
8,"CC(C(=O)NCc1cc(C(C)(C)C)nn1-c1cccc(Cl)c1)c1ccc(NC(=O)c2ccc(F)cc2)nc1 (centres unmarked) [Example 93, N-(5-(1-((3-tert-butyl-1-(3-chlorophenyl)-1H-pyrazol-5-yl)methylamino)-1-oxopropan-2-yl)pyridin-2-yl)-4-fluorobenzamide]",2 nM
9,"CC(C(=O)NCc1cc(C(F)(F)F)nn1-c1cccc(Cl)c1)c1ccc(NC(=O)c2ccc(F)cc2)nc1 (centres unmarked) [Example 94, N-(5-(1-((1-(3-chlorophenyl)-3-(trifluoromethyl)-1H-pyrazol-5-yl)methylamino)-1-oxopropan-2-yl)pyridin-2-yl)-4-fluorobenzamide]",4 nM
10,"CC(C(=O)NCc1cc(C(C)(C)C)nn1-c1cccc(Cl)c1)c1ccc(NC(=O)c2ccc(Cl)cc2)nc1 (centres unmarked) [Example 95, N-(5-(1-((3-tert-butyl-1-(3-chlorophenyl)-1H-pyrazol-5-yl)methylamino)-1-oxopropan-2-yl)pyridin-2-yl)-4-chlorobenzamide]",2 nM
11,"CC(C(=O)NCc1cc(C(F)(F)F)nn1-c1cccc(Cl)c1)c1ccc(NC(=O)c2ccc(Cl)cc2)nc1 (centres unmarked) [Example 96, 4-chloro-N-(5-(1-((1-(3-chlorophenyl)-3-(trifluoromethyl)-1H-pyrazol-5-yl)methylamino)-1-oxopropan-2-yl)pyridin-2-yl)benzamide]",3 nM
12,"CC(C(=O)NCc1cc(C(C)(C)C)nn1-c1cccc(Cl)c1)c1ccc(NS(C)(=O)=O)nc1 (centres unmarked) [Example 98, N-((3-tert-butyl-1-(3-chlorophenyl)-1H-pyrazol-5-yl)methyl)-2-(6-(methylsulfonamido)pyridin-3-yl)propanamide]",8 nM
13,"CC(C(=O)NCc1cc(C(F)(F)F)nn1-c1cccc(Cl)c1)c1ccc(NS(C)(=O)=O)nc1 (centres unmarked) [Example 99, N-((1-(3-chlorophenyl)-3-(trifluoromethyl)-1H-pyrazol-5-yl)methyl)-2-(6-(methylsulfonamido)pyridin-3-yl)propanamide]",11 nM
14,"CC(C(=O)NCc1cc(C(F)(F)F)nn1-c1cccc(F)c1)c1ccc(NS(C)(=O)=O)nc1 (centres unmarked) [Example 100, N-((1-(3-fluorophenyl)-3-(trifluoromethyl)-1H-pyrazol-5-yl)methyl)-2-(6-(methylsulfonamido)pyridin-3-yl)propanamide]",37 nM
15,"CC(C(=O)NCc1cc(C(C)(C)C)nn1-c1cccc(Cl)c1)c1cnc(NS(C)(=O)=O)c(F)c1 (centres unmarked) [Example 102, N-((3-tert-butyl-1-(3-chlorophenyl)-1H-pyrazol-5-yl)methyl)-2-(5-fluoro-6-(methylsulfonamido)pyridin-3-yl)propanamide]",8 nM
16,"CC(C(=O)NCc1cc(C(F)(F)F)nn1-c1cccc(Cl)c1)c1cnc(NS(C)(=O)=O)c(F)c1 (centres unmarked) [Example 103, N-((1-(3-chlorophenyl)-3-(trifluoromethyl)-1H-pyrazol-5-yl)methyl)-2-(5-fluoro-6-(methylsulfonamido)pyridin-3-yl)propanamide]",12 nM
17,"COc1cc(C(C)C(=O)NCc2cc(C(F)(F)F)nn2-c2cccc(Cl)c2)cnc1NS(C)(=O)=O (centres unmarked) [Example 104, N-((1-(3-chlorophenyl)-3-(trifluoromethyl)-1H-pyrazol-5-yl)methyl)-2-(5-methoxy-6-(methylsulfonamido)pyridin-3-yl)propanamide]",3 nM
18,"COc1cc(C(C)C(=O)NCc2cc(C(C)(C)C)nn2-c2cccc(Cl)c2)cnc1NS(C)(=O)=O (centres unmarked) [Example 105, N-((3-tert-butyl-1-(3-chlorophenyl)-1H-pyrazol-5-yl)methyl)-2-(5-methoxy-6-(methylsulfonamido)pyridin-3-yl)propanamide]",2 nM
19,"CN(C)c1ncc(NC(=O)NCc2cc(C(F)(F)F)nn2-c2cccc(Cl)c2)cc1C(F)(F)F [Example 106, 1-((1-(3-chlorophenyl)-3-(trifluoromethyl)-1H-pyrazol-5-yl)methyl)-3-(6-(dimethylamino)-5-(trifluoromethyl)pyridin-3-yl)urea]",25 nM
20,"CN(C)c1ncc(NC(=O)NCc2cc(C(C)(C)C)nn2-c2cccc(Cl)c2)cc1C(F)(F)F [Example 107, 1-((3-tert-butyl-1-(3-chlorophenyl)-1H-pyrazol-5-yl)methyl)-3-(6-(dimethylamino)-5-(trifluoromethyl)pyridin-3-yl)urea]",5 nM
21,"CC(C)(C)c1cc(CNC(=O)Nc2ccc(N3CCC3)nc2)n(-c2cccc(Cl)c2)n1 [Example 108, 1-(6-(azetidin-1-yl)pyridin-3-yl)-3-((3-tert-butyl-1-(3-chlorophenyl)-1H-pyrazol-5-yl)methyl)urea]",43 nM
22,"O=C(NCc1cc(C(F)(F)F)nn1-c1cccc(Cl)c1)Nc1ccc(N2CCC2)nc1 [Example 109, 1-(6-(azetidin-1-yl)pyridin-3-yl)-3-((1-(3-chlorophenyl)-3-(trifluoromethyl)-1H-pyrazol-5-yl)methyl)urea]",46 nM
23,"CC(C)(C)c1cc(CNC(=O)Nc2ccc(N3CC(O)C3)nc2)n(-c2cccc(F)c2)n1 [Example 110, 1-((3-tert-butyl-1-(3-fluorophenyl)-1H-pyrazol-5-yl)methyl)-3-(6-(3-hydroxyazetidin-1-yl)pyridin-3-yl)urea]",37 nM
24,"O=C(NCc1cc(C(F)(F)F)nn1-c1cccc(Cl)c1)Nc1ccc(N2CC(O)C2)nc1 [Example 111, 1-((1-(3-chlorophenyl)-3-(trifluoromethyl)-1H-pyrazol-5-yl)methyl)-3-(6-(3-hydroxyazetidin-1-yl)pyridin-3-yl)urea]",38 nM
25,"O=C(NCc1cc(C(F)(F)F)nn1-c1cccc(F)c1)Nc1ccc(N2CC(O)C2)nc1 [Example 112, 1-((1-(3-fluorophenyl)-3-(trifluoromethyl)-1H-pyrazol-5-yl)methyl)-3-(6-(3-hydroxyazetidin-1-yl)pyridin-3-yl)urea]",48 nM
26,"O=C(NCc1cc(C(F)(F)F)nn1-c1ccc(F)c(Cl)c1)Nc1ccc(N2CC(O)C2)nc1 [Example 113, 1-((1-(3-chloro-4-fluorophenyl)-3-(trifluoromethyl)-1H-pyrazol-5-yl)methyl)-3-(6-(3-hydroxyazetidin-1-yl)pyridin-3-yl)urea]",80 nM
27,"Cc1cccc(-n2nc(C(F)(F)F)cc2CNC(=O)Nc2ccc(N3CC(O)C3)nc2)c1 [Example 114, 1-(6-(3-hydroxyazetidin-1-yl)pyridin-3-yl)-3-((1-m-tolyl-3-(trifluoromethyl)-1H-pyrazol-5-yl)methyl)urea]",35 nM

# Same assay, conditions: capsaicin (Cap); human being
row,Compound,"mode of action at VR1/TRPV1 (AG, pAG, NE), Cap"
1,"CC(C(=O)NCc1cc(C(C)(C)C)nn1-c1cccc(Cl)c1)c1ccc(NC(=O)c2ccccc2)nc1 (centres unmarked) [Example 91, N-(5-(1-((3-tert-butyl-1-(3-chlorophenyl)-1H-pyrazol-5-yl)methylamino)-1-oxopropan-2-yl)pyridin-2-yl)benzamide]",AG
